Measured values: patent publication US9815851B2, “Pyrrolo carboxamides as modulators of orphan nuclear receptor RAR-related orphan receptor-gamma (RORγ, NR1F3) activity and for the treatment of chronic inflammatory and autoimmune diseases” (PHENEX PHARMACEUTICALS AG, priority 2011, dated 2017)
Like-named read-outs stand apart in the source and are kept apart here.

How the values were obtained:
[1] = target: T1, RORγ ligand binding domain (LBD) (Homo sapiens, UniProt P51449); test: TR-FRET Activity Assay (ligand sensing, RORγ-LBD / coactivator peptide interaction, LANCE); assay type: biochemical
T1 construct: made in house; host or cells: E. coli BL-21 (BL3), vector pDEST15
T1 sequence (P51449 269-508 limits assumed): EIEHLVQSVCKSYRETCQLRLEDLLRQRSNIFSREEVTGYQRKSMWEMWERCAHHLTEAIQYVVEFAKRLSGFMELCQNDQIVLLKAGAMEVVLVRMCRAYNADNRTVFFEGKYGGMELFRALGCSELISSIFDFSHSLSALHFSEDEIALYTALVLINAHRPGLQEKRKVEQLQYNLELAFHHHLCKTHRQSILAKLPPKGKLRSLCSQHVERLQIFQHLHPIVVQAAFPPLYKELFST

RORγ = target: T2, RORγ (UniProt P51449); test: RORγ Gal4 Reporter Gene Assay in 293T cells (firefly and renilla luciferase); assay type: cell-based, human
T2 sequence (P51449 1-518): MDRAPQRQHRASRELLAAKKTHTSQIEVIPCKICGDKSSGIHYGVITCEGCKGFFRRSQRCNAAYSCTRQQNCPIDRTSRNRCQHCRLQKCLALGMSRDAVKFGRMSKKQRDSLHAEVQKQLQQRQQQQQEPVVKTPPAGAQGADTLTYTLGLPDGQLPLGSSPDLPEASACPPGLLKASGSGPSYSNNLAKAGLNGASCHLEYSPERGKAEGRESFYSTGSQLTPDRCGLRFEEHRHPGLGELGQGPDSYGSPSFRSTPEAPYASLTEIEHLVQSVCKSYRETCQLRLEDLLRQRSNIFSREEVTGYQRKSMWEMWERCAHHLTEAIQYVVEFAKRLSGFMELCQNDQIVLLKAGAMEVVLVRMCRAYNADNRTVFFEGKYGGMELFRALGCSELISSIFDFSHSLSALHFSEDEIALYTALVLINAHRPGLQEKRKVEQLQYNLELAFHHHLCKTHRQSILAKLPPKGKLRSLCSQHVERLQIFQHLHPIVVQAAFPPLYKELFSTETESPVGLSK

[2] = first value of the cell FRET/FF/REN, TR-FRET activity assay, read-out: pIC50 (FRET) (converted)
[3] = second value of the cell, Gal4 reporter gene assay in 293T cells, firefly luciferase
[4] = third value of the cell, Gal4 reporter gene assay in 293T cells, renilla normalised luciferase

SMILES	IC50 [1]	pIC50 (FF) (RORγ)	pIC50 (REN) (RORγ)	IC50 [1, 2]	pIC50 (FF) (RORγ; [3])	pIC50 (REN) (RORγ; [4])
Cc1c(C(=O)NC2(C)CCOCC2)cc(-c2ccc(S(=O)(=O)NC(C)(C)C)c(C(C)(C)C)c2)n1CC1CCCCC1 [17/206]	631 nM	6.2/7.0/7.2	6.2/7.0/7.2	–	–	–
Cc1c(C(=O)NC2CC23CCOCC3)cc(-c2ccc(S(=O)(=O)NC(C)(C)C)c(C(C)(C)C)c2)n1CC1CCCCC1 (stereo not drawn) [17/207]	–	–	–	501 nM	7.9	8.0
Cc1c(C(=O)NC2(C#N)CCOCC2)cc(-c2ccc(S(=O)(=O)NC(C)(C)C)c(C(C)(C)C)c2)n1CC1CCCCC1 [17/208]	398 nM	6.4/6.6/6.6	6.4/6.6/6.6	–	–	–
Cc1c(C(=O)NC2(C)CCOCC2)cc(-c2ccc(S(=O)(=O)NC(C)(C)C)c(C(F)(F)F)c2)n1CC1CCCCC1 [17/209]	200 nM	6.7/7.3/7.6	6.7/7.3/7.6	–	–	–
Cc1c(C(=O)NC2CC23CCOCC3)cc(-c2ccc(S(=O)(=O)NC(C)(C)C)c(C(F)(F)F)c2)n1CC1CCCCC1 (stereo not drawn) [17/210]	–	–	–	158 nM	7.9	8.1
Cc1c(C(=O)N2CC3(CCOCC3)C2)cc(-c2ccc(S(=O)(=O)NC(C)(C)C)c(C(F)(F)F)c2)n1CC1CCCCC1 [17/211]	–	–	–	501 nM	8.0	8.0
Cc1c(C(=O)NC2CCOCC2)cc(-c2ccc(S(=O)(=O)NC(C)(C)C)c(C(C)(C)C)c2)n1CC1CCCC1 [17/212]	631 nM	6.2/7.3/7.4	6.2/7.3/7.4	–	–	–
Cc1c(C(=O)NC2CCOCC2)cc(-c2ccc(S(=O)(=O)NC(C)(C)C)c(C(C)(C)C)c2)n1CC1CCC1 [17/213]	631 nM	6.2/7.1/7.2	6.2/7.1/7.2	–	–	–
Cc1c(C(=O)NC2CCOCC2)cc(-c2ccc(S(=O)(=O)NC(C)(C)C)c(C(F)(F)F)c2)n1CC1CCCC1 [17/214]	–	–	–	251 nM	7.5	7.5
Cc1c(C(=O)NC2CCOCC2)cc(-c2ccc(S(=O)(=O)NC(C)(C)C)c(C(F)(F)F)c2)n1CC1CCC1 [17/215]	–	–	–	316 nM	7.5	7.3
CCC(C)(C)NS(=O)(=O)c1ccc(-c2cc(C(=O)NC3CCOCC3)c(C)n2CC2CCCC2)cc1C(F)(F)F [17/216]	–	–	–	200 nM	7.8	7.8
CCC(C)(C)NS(=O)(=O)c1ccc(-c2cc(C(=O)NC3CCOCC3)c(C)n2CC2CCC2)cc1C(F)(F)F [17/217]	–	–	–	126 nM	7.6	7.7
Cc1c(C(=O)NC2CCOCC2)cc(-c2ccc(S(=O)(=O)NC(C)(C)C)c(C(F)(F)F)c2)n1S(=O)(=O)C1CCCCC1 [17/218]	–	–	–	316 nM	7.1	7.3
Cc1c(C(=O)NC2CCOCC2)cc(-c2cc(Cl)cc(C(=O)NC(C)(C)C)c2)n1CC1CCCCC1 [17/219]	–	–	–	501 nM	6.9	7.0
Cc1c(C(=O)N[C@H]2C[C@H](C(=O)O)C2)cc(-c2ccc(S(=O)(=O)NC(C)(C)C)c(C(F)(F)F)c2)n1CC1CCCCC1 [17/220]	–	–	–	316 nM	6.6	6.6
Cc1c(C(=O)N[C@H]2C[C@H](C(=O)O)C2)cc(-c2ccc(S(=O)(=O)NC(C)(C)C)c(C(C)(C)C)c2)n1CC1CCCCC1 [17/221]	–	–	–	2000 nM	7.1	7.1
Cc1c(C(=O)NCCC(C)(C)C(=O)O)cc(-c2ccc(S(=O)(=O)NC(C)(C)C)c(C(F)(F)F)c2)n1CC1CCCCC1 [17/222]	–	–	–	631 nM	7.4	7.5
Cc1c(C(=O)N[C@H]2CC[C@H](C(=O)O)CC2)cc(-c2ccc(S(=O)(=O)NC(C)(C)C)c(C(F)(F)F)c2)n1CC1CCCCC1 [17/223]	–	–	–	398 nM	7.1	7.2
Cc1c(C(=O)N2CCC(C)(C(=O)O)CC2)cc(-c2ccc(S(=O)(=O)NC(C)(C)C)c(C(F)(F)F)c2)n1CC1CCCCC1 [17/224]	–	–	–	794 nM	7.1	7.2
Cc1c(C(=O)N2CCCC(C)(C(=O)O)C2)cc(-c2ccc(S(=O)(=O)NC(C)(C)C)c(C(F)(F)F)c2)n1CC1CCCCC1 (stereo not drawn) [17/225]	–	–	–	794 nM	7.6	7.6
Cc1c(C(=O)NC2CCOCC2)cc(-c2ccc(S(=O)(=O)NC(C)(C)C)c(C(C)C)c2)n1CC1CCCCC1 [17/226]	–	–	–	316 nM	8.2	8.2

SMILES	IC50 [1]	pIC50 (FF) (RORγ)	pIC50 (REN) (RORγ)	IC50 [1, 2]	pIC50 (FF) (RORγ; [3])	pIC50 (REN) (RORγ; [4])
Cc1c(C(=O)NC2CCOCC2)cc(-c2ccc(S(=O)(=O)NC3(C)CC3)c(C(C)(C)C)c2)n1CC1CCCCC1 [17/227]	501 nM	6.3/8.1/8.1	6.3/8.1/8.1	–	–	–
Cc1c(C(=O)NC2CCOCC2)cc(-c2ccc(S(=O)(=O)NC3CCC3)c(C(C)(C)C)c2)n1CC1CCCCC1 [17/228]	–	–	–	398 nM	7.7	7.7
Cc1c(C(=O)NC2CCOCC2)cc(-c2cc(F)c(S(=O)(=O)NC(C)(C)C)c(C(F)(F)F)c2)n1CC1CCCCC1 [17/229]	–	–	–	631 nM	7.2	7.3
Cc1c(C(=O)NC2CCOCC2)cc(-c2cc(C(F)(F)F)c(S(=O)(=O)NC(C)(C)C)cc2F)n1CC1CCCCC1 [17/230]	–	–	–	251 nM	7.5	7.6
Cc1c(C(=O)NC2CCOCC2)cc(-c2ccc(S(=O)(=O)NC(C)(C)C)c(C(F)(F)F)c2F)n1CC1CCCCC1 [17/231]	–	–	–	251 nM	7.5	7.7
Cc1cc(-c2cc(C(=O)NC3CCOCC3)c(C)n2CC2CCCCC2)cc(C(F)(F)F)c1S(=O)(=O)NC(C)(C)C [17/232]	794 nM	6.1/6.8/7.0	6.1/6.8/7.0	–	–	–
Cc1cc(S(=O)(=O)NC(C)(C)C)c(C(F)(F)F)cc1-c1cc(C(=O)NC2CCOCC2)c(C)n1CC1CCCCC1 [17/233]	1580 nM	5.8/6.5/6.5	5.8/6.5/6.5	–	–	–
Cc1c(C(=O)NC2CCOCC2)cc(-c2ccc(S(=O)(=O)NC(C)(C)C)c(Cl)c2)n1CC1CCCCC1 [17/234]	–	–	–	200 nM	7.1	7.2
Cc1c(C(=O)NC2CCOCC2)cc(-c2cc(Cl)c(S(=O)(=O)NC(C)(C)C)c(Cl)c2)n1CC1CCCCC1 [17/235]	–	–	–	200 nM	7.6	7.6
Cc1c(C(=O)NC2CCOCC2)cc(-c2ccc(S(=O)(=O)NC(C)(C)C)c3ccccc23)n1CC1CCCCC1 [17/236]	–	–	–	631 nM	8.1	8.2
Cc1c(C(=O)NC2CCOCC2)cc(-c2ccc(S(=O)(=O)NC(C)(C)C)cc2)n1CC1CCCCC1 [17/237]	–	–	–	1260 nM	6.5	6.5
Cc1c(C(=O)NC2CCOCC2)cc(-c2ccc(S(=O)(=O)NC(C)(C)C)c(F)c2)n1CC1CCCCC1 [17/238]	–	–	–	1000 nM	6.9	6.7
Cc1c(C(=O)NCC2(O)CCOCC2)cc(-c2ccc(S(=O)(=O)NC(C)(C)C)c3ccccc23)n1CC1CCCCC1 [17/239]	–	–	–	1000 nM	7.9	8.1
Cc1c(C(=O)N[C@H]2C[C@H](C(=O)O)C2)cc(-c2ccc(S(=O)(=O)NC(C)(C)C)c3ccccc23)n1CC1CCCCC1 [17/240]	–	–	–	794 nM	7.5	7.6
Cc1c(C(=O)NCCC(C)(C)C(=O)O)cc(-c2ccc(S(=O)(=O)NC(C)(C)C)c3ccccc23)n1CC1CCCCC1 [17/241]	–	–	–	1260 nM	7.7	7.8
Cc1c(C(=O)NC2CCOCC2)cc(-c2ccc(S(=O)(=O)NC(C)(C)C)c3ccccc23)n1CC1CCC1 [17/242]	–	–	–	398 nM	7.5	7.6
Cc1c(C(=O)NCC2(O)CCOCC2)cc(-c2ccc(S(=O)(=O)NC(C)(C)C)c3ccccc23)n1CC1CCC1 [17/243]	–	–	–	631 nM	7.4	7.6
Cc1c(C(=O)NC2CCOCC2)cc(-c2ccc(S(=O)(=O)NC(C)(C)C)c(C(F)(F)F)n2)n1CC1CCCCC1 [17/245]	–	–	–	> 20000 nM	5.7	5.7
Cc1c(C(=O)NCC2CC(C(=O)O)C2)cc(-c2cc(C(C)(C)O)cc(C3(C)CC3)c2)n1CC1CCCCC1 (stereo not drawn) [17/246]	–	–	–	3980 nM	6.1	6.2
Cc1c(C(=O)NC2CCOCC2)cc(-c2ccc(NS(=O)(=O)C(C)(C)C)c(C(F)(F)F)c2)n1CC1CCCCC1 [17/247]	–	–	–	1260 nM	6.9	7.0
